This is an account of results in patent US7351742B2, “Sulfonamide derivatives for the treatment of diseases” (Pfizer Inc., priority 2004, dated 2008).

pEC50: −log10 of the molar value.

As a reminder, the pEC50 is the negative decadic logarithm of the EC50, by convention in mol/L.

For the experiment, the target named is T1, human β2 adrenergic receptor (Homo sapiens, UniProt P07550).
T1 construct: expressed in transfected cells; host or cells: CHO (Chinese Hamster Ovary) cells, CHOhβ2
T1 sequence (P07550 whole entry): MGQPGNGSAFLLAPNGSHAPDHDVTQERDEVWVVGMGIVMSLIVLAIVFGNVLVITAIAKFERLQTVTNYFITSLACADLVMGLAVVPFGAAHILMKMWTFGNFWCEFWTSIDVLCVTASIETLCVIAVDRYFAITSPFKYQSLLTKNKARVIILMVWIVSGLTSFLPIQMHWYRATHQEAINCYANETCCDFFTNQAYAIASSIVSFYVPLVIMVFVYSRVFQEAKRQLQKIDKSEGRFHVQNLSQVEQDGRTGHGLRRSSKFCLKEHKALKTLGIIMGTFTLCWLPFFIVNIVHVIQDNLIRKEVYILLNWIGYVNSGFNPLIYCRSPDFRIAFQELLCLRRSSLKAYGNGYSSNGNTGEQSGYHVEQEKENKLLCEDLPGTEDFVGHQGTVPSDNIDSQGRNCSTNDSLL
In words: β2 cAMP EC50 in CHO cells recombinantly expressing the human β2 adrenergic receptor (cAMP-Flashplate). It counts as cell-based. The settings on record: CHOhβ2 cells, 1 hour incubation. On the procedure:
According to another alternative, the agonist potency for the β2 receptor of the compounds of the formula (1) may also be determined by the measure of the concentration of compound according to the present invention required to produce half maximal effect (EC50) for the β2 receptor.
10 mM/100% DMSO (dimethylsulfoxide) stock of compound is diluted to required top dose in 4% DMSO. This top dose is used to construct a 10-point semi-log dilution curve, all in 4% DMSO. Isoprenaline (Sigma, 1-5627) was used as a standard in every experiment and for control wells on each plate. Data was expressed as % Isoprenaline response.
CHO (Chinese Hamster Ovary) cells recombinantly expressing the human β2 adrenergic receptor (from Kobilka et al., PNAS 84: 46-50, 1987 and Bouvier et al., Mol Pharmacol 33: 133-139 1988 CHOhβ2) were grown in Dulbeccos MEM/NUT MIX F12 (Gibco, 21331-020) supplemented with 10% foetal bovine serum (Sigma, F4135, Lot 90K8404 Exp 09/04), 2 mM glutamine (Sigma, G7513), 500 μg/ml geneticin (Sigma, G7034) and 10 μg/ml puromycin (Sigma, P8833). Cells were seeded to give about 90% confluency for testing.
25 μl/well each dose of compound was transferred into a cAMP-Flashplate® (NEN, SMP004B), with […] as basal controls and 100 nM Isoprenaline as max controls. This was diluted 1:2 by the addition of 25 μl/well PBS. Cells were trypsinised (0.25% Sigma, T4049), washed with PBS (Gibco, 14040-174) and resuspended in stimulation buffer (NEN, SMP004B) to give 1×10^6 cells/ml CHOhB2. Compounds were incubated with 50 μl/well cells for 1 hour. Cells were then lysed by the addition of 100 μl/well detection buffer (NEN, SMP004B) containing 0.18 μCi/ml ^125I-cAMP (NEN, NEX-130) and plates were incubated at room temperature for a further 2 hours. The amount of ^125I-cAMP bound to the Flashplate® was quantified using a Topcount NXT (Packard), normal counting efficiency for 1 minute. Dose-response data was expressed as % Isoprenaline activity and fitted using a four parameter sigmoid fit.
For `C[C@H](Cc1cccc(CC(=O)NCc2ccccn2)c1)NC[C@H](O)c1ccc(O)c(NS(C)(=O)=O)c1` [Example 60, 2-(3-{(2R)-2-[((2R)-2-Hydroxy-2-{4-hydroxy-3-[(methylsulfonyl)amino]phenyl}ethyl)amino]propyl}phenyl)-N-(pyridin-2-ylmethyl)acetamide], the negative logarithm of the EC50 (pEC50) was 10.70.

`COc1ccc(CNC(=O)Cc2cccc(CC(C)(C)NC[C@H](O)c3ccc(O)c(NS(C)(=O)=O)c3)c2)cc1` [Example 2, 2-(3-{2-[((2R)-2-hydroxy-2-{4-hydroxy-3-[(methylsulfonyl)amino]phenyl}ethyl)amino]-2-methylpropyl}phenyl)-N-(4-methoxybenzyl)acetamide]: the pEC50 is 10.52.

In the case of `CC(C)(Cc1ccc(CC(=O)NCc2cc(C(F)(F)F)ccc2Cl)cc1)NC[C@H](O)c1ccc(O)c(NS(C)(=O)=O)c1` [Example 67, N-[2-Chloro-5-(trifluoromethyl)benzyl]-2-(4-{2-[((2R)-2-hydroxy-2-{4-hydroxy-3-[(methylsulfonyl)amino]phenyl}ethyl)amino]-2-methylpropyl}phenyl)acetamide], the pEC50 is 10.10.

For `Cc1ccc(CNC(=O)Cc2cccc(CC(C)(C)NC[C@H](O)c3ccc(O)c(NS(C)(=O)=O)c3)c2)cc1` [Example 6, 2-(3-{2-[((2R)-2-hydroxy-2-{4-hydroxy-3-[(methylsulfonyl)amino]phenyl}ethyl)amino]-2-methylpropyl}phenyl)-N-(4-methylbenzyl)acetamide], the negative-log EC50 (pEC50) was 10.15.

Consider `CC(C)(Cc1cccc(CC(=O)NCCc2ccccc2)c1)NC[C@H](O)c1ccc(O)c(NS(C)(=O)=O)c1` [Example 25, 2-(3-{2-[((2R)-2-Hydroxy-2-{4-hydroxy-3-[(methylsulfonyl)amino]phenyl}ethyl)amino]-2-methylpropyl}phenyl)-N-(2-phenylethyl)acetamide], for which the pEC50 was 10.10.

Turning to `CC(C)(Cc1cccc(CC(=O)NCc2ccc(F)cc2)c1)NC[C@H](O)c1ccc(O)c(NS(C)(=O)=O)c1` [Example 15, N-(4-Fluorobenzyl)-2-(3-{2-[((2R)-2-hydroxy-2-{4-hydroxy-3-[(methylsulfonyl)amino]phenyl}ethyl)amino]-2-methylpropyl}phenyl)acetamide], the pEC50 is 10.52.

In the case of `C[C@H](Cc1ccc(CC(=O)NCc2ccccc2)cc1)NC[C@H](O)c1ccc(O)c(NS(C)(=O)=O)c1` [Example 76, N-Benzyl-2-(4-{(2R)-2-[((2R)-2-hydroxy-2-{4-hydroxy-3-[(methylsulfonyl)amino]phenyl}ethyl)amino]propyl}phenyl)acetamide], the pEC50 is 10.70.

As to `CSc1ccccc1CNC(=O)Cc1cccc(CC(C)(C)NC[C@H](O)c2ccc(O)c(NS(C)(=O)=O)c2)c1` [Example 31, 2-(3-{2-[((2R)-2-Hydroxy-2-{4-hydroxy-3-[(methylsulfonyl)amino]phenyl}ethyl)amino]-2-methylpropyl}phenyl)-N-[2-(methylthio)benzyl]acetamide], the pEC50 was 10.40.

On to `C[C@H](Cc1cccc(CC(=O)NCc2ccc(C(F)(F)F)cc2)c1)NC[C@H](O)c1ccc(O)c(NS(C)(=O)=O)c1` [Example 45, 2-(3-{(2R)-2-[((2R)-2-Hydroxy-2-{4-hydroxy-3-[(methylsulfonyl)amino]phenyl}ethyl)amino]propyl}phenyl)-N-[4-(trifluoromethyl)benzyl]acetamide], for which the pEC50 is 10.22.

For `CC(C)(Cc1cccc(CC(=O)NCc2ccccc2)c1)NC[C@H](O)c1ccc(O)c(NS(C)(=O)=O)c1` [Example 1, N-Benzyl-2-(3-{2-[((2R)-2-hydroxy-2-{4-hydroxy-3-[(methylsulfonyl)amino]phenyl}ethyl)amino]-2-methylpropyl}phenyl)acetamide], the negative-log EC50 (pEC50) was 10.70.

As for `CC(C)(Cc1cccc(CC(=O)NCCCc2ccccc2)c1)NC[C@H](O)c1ccc(O)c(NS(C)(=O)=O)c1` [Example 26, 2-(3-{2-[((2R)-2-Hydroxy-2-{4-hydroxy-3-[(methylsulfonyl)amino]phenyl}ethyl)amino]-2-methylpropyl}phenyl)-N-(3-phenylpropyl)acetamide], the negative-log EC50 (pEC50) is 10.05.

For `C[C@H](Cc1cccc(CC(=O)NCc2ccc(Cl)c(Cl)c2)c1)NC[C@H](O)c1ccc(O)c(NS(C)(=O)=O)c1` [Example 39, N-(3,4-Dichlorobenzyl)-2-(3-{(2R)-2-[((2R)-2-hydroxy-2-{4-hydroxy-3-[(methylsulfonyl)amino]phenyl}ethyl)amino]propyl}phenyl)acetamide], the pEC50 is 10.30.

Regarding `Cc1ccc(CNC(=O)Cc2cccc(C[C@@H](C)NC[C@H](O)c3ccc(O)c(NS(C)(=O)=O)c3)c2)cc1C` [Example 38, N-(3,4-Dimethylbenzyl)-2-(3-{(2R)-2-[((2R)-2-hydroxy-2-{4-hydroxy-3-[(methylsulfonyl)amino]phenyl}ethyl)amino]propyl}phenyl)acetamide], the pEC50 was 10.22.

As to `CC(C)(Cc1cccc(CC(=O)NCc2ccc(Cl)c(Cl)c2)c1)NC[C@H](O)c1ccc(O)c(NS(C)(=O)=O)c1` [Example 17, N-(3,4-Dichlorobenzyl)-2-(3-{2-[((2R)-2-hydroxy-2-{4-hydroxy-3-[(methylsulfonyl)amino]phenyl}ethyl)amino]-2-methylpropyl}phenyl)acetamide], the pEC50 is 10.10.

Consider `CC(C)(Cc1cccc(CC(=O)NCc2ccc(Cl)cc2)c1)NC[C@H](O)c1ccc(O)c(NS(C)(=O)=O)c1` [Example 12, N-(4-Chlorobenzyl)-2-(3-{2-[((2R)-2-hydroxy-2-{4-hydroxy-3-[(methylsulfonyl)amino]phenyl}ethyl)amino]-2-methylpropyl}phenyl)acetamide], for which the pEC50 was 10.30.
